Measured values taken from patent US20210128609A1, “ONCOLOGY TREATMENTS USING ZINC AGENTS” (XYLONIX IP HOLDINGS PTE. LTD., priority 2018, published 2021).

How the values were obtained:
HeLa cells = conditions: 24h co-incubation with C004
From the text: See Goodall, M. L. et al., Developmental Cell, vol. 37, 337-349 (2016).

HCC-PDX xenograft = HCC-PDX xenograft on Humanized NSG mice with TIL analysis (Example 11); assay type: in vivo; conditions: tumor infiltrating leukocytes
Procedure: Pembrolizumab 25 mg/mL (Keytruda®, Merck® KGa) was purchased from Merck®. Isotonic zinc sulfate gamma-polyglutamate solution was prepared at pH 7.0 using Tris buffer (1 mM), at elemental zinc concentration of 1 mg/mL and gamma-polyglutamate concentration of 10 mg/mL.
All manipulations and procedures with mice were approved by Agency for Science, Technology and Research (A*STAR) Institutional Animal Care and Use Committee (IACUC). The diet provided was irradiated TEKLAD GLOBAL 18% Protein Rodent Diet (2918). Mice were housed in a sterile environment and only accessed under a BSL2 hood. Mice were fed, given water and monitored daily for health, and cages were changed weekly. NSG mice were purchased from The Jackson Laboratory and bred in a specific pathogen free facility at the Biological Resource Centre (BRC) in A*STAR, Singapore. One to three days old NSG pups were irradiated with a 55 s exposure equaling 1.1 Gy and transplanted with 1×10^5 CD34+ human fetal liver cells by intra-hepatic injections. The mice were bled at 8 weeks post-transplantation to determine the fraction of human immune cell reconstitution. Reconstitution was calculated by [% hCD45+/(% hCD45++% mCD45+)]. […]
Tumor volume was measured in two dimensions (length and width) using calipers and the tumor volume was calculated using the formula: Tumor size=(length […])×½. […]

| Compound | effect of inhibitor/agonist on C004-induced necrotic cytotoxicity (LDH release assay) (HeLa cells) | TIL analysis, T cell involvement (HCC-PDX xenograft) |
| --- | --- | --- |
| N.S=C(S)N1CCCC1 [PDTC] | did not cause a shift in the IC50 necrotic cytotoxicity |  |
| Pembrolizumab |  | solely dependent on CD8+ T cells |
